Measured values taken from ChEMBL document CHEMBL1130834, “2(1H)-quinolinone derivatives as novel anti-arteriostenotic agents showing anti-thrombotic and anti-hyperplastic activities” (Bioorg Med Chem Lett, 1998).

What was measured:
Rattus norvegicus [1] = assay: In vivo anti-hyperplastic activity was evaluated by the inhibition of balloon injury model in rats at a dose of 30 mg/kg (p.o.); type: functional; settings: for inhibition in vivo at 30 mg/kg: Rattus norvegicus, po
[2] = (§1) In vitro inhibitory activity against Adenosine diphosphate (ADP) induced rabbit platelet aggregation; type: functional, Oryctolagus cuniculus
Mus musculus [3] = assay: In vivo anti-thrombotic activity was evaluated by the inhibition of pulmonary thromboembolism model in mice at a dose of 30 mg/kg (p.o.); type: functional; settings: route oral
Oryctolagus cuniculus [4] = organism: Oryctolagus cuniculus; assay: In vitro inhibitory activity against collagen induced rabbit platelet aggregation; type: functional
Mus musculus [5] = assay: In vivo anti-thrombotic activity was evaluated by the inhibition of pulmonary thromboembolism model in mice at a dose of 10 mg/kg (p.o.); type: functional; settings: route oral
Rattus norvegicus [6] = assay: In vivo anti-hyperplastic activity was evaluated by the inhibition of balloon injury model in rats at a dose of 10 mg/kg (p.o.); type: functional; settings: route oral
Oryctolagus cuniculus [7] = organism: Oryctolagus cuniculus; assay: as §1; type: functional

| Compound | IC50 ([2]; Oryctolagus cuniculus) [µM] | IC50 (Oryctolagus cuniculus [4]; Oryctolagus cuniculus) [µM] | IC50 (Oryctolagus cuniculus [7]) [µM] | IC50 [2] [µM] | IC50 (Oryctolagus cuniculus [4]) [µM] | inhibition in vivo at 30 mg/kg (Rattus norvegicus [1]) [%] | inhibition in vivo at 30 mg/kg (Mus musculus [3]) [%] | inhibition in vivo at 10 mg/kg (Mus musculus [5]) [%] | inhibition in vivo at 10 mg/kg (Rattus norvegicus [6]) [%] | Inhibition (Rattus norvegicus [1]; route oral, 30 mg/kg) [%] |
| --- | --- | --- | --- | --- | --- | --- | --- | --- | --- | --- |
| O=C(NCCCOc1ccc2nc(O)ccc2c1)N(C1CC1)[C@H]1CCCC[C@@H]1O | 2.4 | 2.2 |  |  |  | 13 | 100 | 29 | 1 |  |
| CCN(CCCOc1ccc2nc(O)ccc2c1)C(=O)N(C)C1CCCCC1 | 15 | 16 |  |  |  | 12 | 58 |  |  |  |
| O=C(NCCCOc1ccc2nc(O)ccc2c1)N(C1CC1)[C@H]1CCCC[C@H]1O | 2.3 | 3.3 |  |  |  | 19 | 100 |  |  |  |
| O=C(NCCCOc1ccc2nc(O)ccc2c1)N(C1CC1)[C@@H]1CCC[C@@H](O)C1 | 3 | 2.8 |  |  |  | 0 | 20 |  |  |  |
| O=C(NCCCOc1ccc2nc(O)ccc2c1)N(C1CCCCCCC1)[C@H]1CCCC[C@@H]1O | 0.08 | 0.03 |  |  |  | 27 | 100 |  |  |  |
| O=C(NCCCOc1ccc2nc(O)ccc2c1)N(C1CCCCC1)C1CC1 | 2.2 | 2.4 |  |  |  | 15 | 100 |  |  |  |
| O=C(NCCCOc1ccc2nc(O)ccc2c1)N(C1CCCC1)[C@H]1CCCC[C@@H]1O | 0.27 | 1.8 |  |  |  | 20 | 78 |  |  |  |
| O=C(NCCCOc1ccc2nc(O)ccc2c1)N(C1CC1)[C@H]1CC[C@H](O)CC1 | 3.8 | 3.1 |  |  |  | 7 | 0 |  |  |  |
| O=C(NCCCOc1ccc2[nH]c(=O)ccc2c1)N(C1CC1)[C@@H]1CCCC[C@H]1O (stereo in doubt; 1p) [K-134] | 2.3 | 2.2 |  |  |  | 24 | 100 | 88 | 26 |  |
| CN(C(=O)CCCOc1ccc2[nH]c(=O)ccc2c1)C1CCCCC1 [CILOSTAMIDE] | 2.4 | 2.2 |  |  |  | 42 | 84 |  |  |  |
| O=C1CCc2cc(OCCCCc3nnnn3C3CCCCC3)ccc2N1 [CILOSTAZOL] | 29 | 31 |  |  |  | 12 | 82 |  |  |  |

More lines, main results first:

| IC50 ([2]; Oryctolagus cuniculus) [µM] | IC50 (Oryctolagus cuniculus [4]; Oryctolagus cuniculus) [µM] | IC50 (Oryctolagus cuniculus [7]) [µM] | IC50 [2] [µM] | IC50 (Oryctolagus cuniculus [4]) [µM] | Compound | inhibition in vivo at 30 mg/kg (Rattus norvegicus [1]) [%] | inhibition in vivo at 30 mg/kg (Mus musculus [3]) [%] | inhibition in vivo at 10 mg/kg (Mus musculus [5]) [%] | inhibition in vivo at 10 mg/kg (Rattus norvegicus [6]) [%] | Inhibition (Rattus norvegicus [1]; route oral, 30 mg/kg) [%] |
| --- | --- | --- | --- | --- | --- | --- | --- | --- | --- | --- |
| 0.12 | 0.03 |  |  |  | O=C(NCCCOc1ccc2nc(O)ccc2c1)N(C1CCCCCC1)[C@H]1CCCC[C@@H]1O | 11 | 69 |  |  |  |
| 2.5 | 3.5 |  |  |  | O=C(NCCCOc1ccc2nc(O)ccc2c1)N(C1CC1)[C@@H]1CCC[C@H]1O | 23 | 67 |  |  |  |
| 0.71 | 3.5 |  |  |  | CCCCO[C@H]1CCCC[C@@H]1N(C(=O)NCCCOc1ccc2nc(O)ccc2c1)C1CC1 | 19 | 33 |  |  |  |
| 3.9 | 15 |  |  |  | CN(C(=O)NCCCOc1ccc2nc(O)ccc2c1)[C@@H]1CCCC[C@H]1O | 10 | 18 |  |  |  |
| 0.19 | 0.15 |  |  |  | O=C(NCCCOc1ccc2nc(O)ccc2c1)N(C1CCCCC1)[C@H]1CCCC[C@@H]1O | 18 | 57 |  |  |  |
|  | 2.7 | 2.6 |  |  | CN(C(=O)NCCCOc1ccc2nc(O)ccc2c1)C1CCCCC1 | 15 | 21 |  |  |  |
| 2.6 | 2.8 |  |  |  | O=C(NCCCOc1ccc2nc(O)ccc2c1)N(C1CC1)[C@@H]1CCCCC[C@H]1O | 0 | 44 |  |  |  |
|  |  |  | 2.5 | 3.1 | O=C(NCCCOc1ccc2[nH]c(=O)ccc2c1)N(C1CC1)[C@@H]1CCCC[C@H]1O (stereo in doubt; 1d) [K-134] |  |  |  |  | 29 |
| > 1000 | > 1000 |  |  |  | CC(=O)Oc1ccccc1C(=O)O [ASPIRIN] | 16 | 33 |  |  |  |
